This is an account of results in paper PMC10254170, “Diastereoselective Synthesis of the Borylated D-Galactose Monosaccharide 3-Boronic-3-Deoxy-D-Galactose and Biological Evaluation in Glycosidase Inhibition and in Cancer for Boron Neutron Capture Therapy (BNCT)” (Molecules, 2023).

The test system of experiment [1] is yeast α-glucosidase. The experiment in a line: Glycosidase inhibition, yeast α-glucosidase. The format is biochemical. To be noted: for inhibition %: in methanol. The source says:
(§1) Glycosidase modulation studies need to explore selectivity as well as potency. Our drugs and controls are therefore screened against a panel of glycosidases in methanol (Table 1) to identify the glycosidase-related disease area(s), selectivity profile, and potency of biological action for each drug. The presence of organic boron covalently bonded to the drug structure also grants a reduced toxicity profile. Following the glycosidase inhibition range recommendations, an IC50 value >250 μm denotes weak inhibition, 100–249 μm denotes moderate inhibition, 10–99 μm good inhibition, 0.1–9 μm potent inhibition, and <0.1 μm very potent inhibition. […] Our boronated D-galactose 7 represents a novel lead in glycosidase inhibition.
(§2) The glycosidases screened are the following: rice α-glucosidase, yeast α-glucosidase, Bacillus α-glucosidase, rat intestinal maltase α-glucosidase, almond β-glucosidase, bovine liver β-glucosidase, coffee beans α-galactosidase, bovine liver β-galactosidase, Jack bean α-mannosidase, snail β-mannosidase, Penicillium decumbens α-L-rhamnosidase, bovine kidney α-L-fucosidase, Eschierichia coli β-glucuronidase, bovine liver β-glucuronidase, porcine kidney trehalase, Aspergillus niger amyloglucosidase, and bovine kidney N-acetyl-β-glucosaminidase. The disease areas for each glycosidase are summarized in [1].
(§3) The enzymes α-glucosidase (from yeast), β-glucosidases (from almond and bovine liver), α-galactosidase (from coffee beans), β-galactosidase (from bovine liver), α-mannosidase (from Jack bean), β-mannosidase (from snail), α-L-rhamnosidase (from Penicillium decumbens), α-L-fucosidase (from bovine kidney), trehalase (from porcine kidney), β-glucuronidases (from E. coli and bovine liver), amyloglucosidase (from A. niger), para-nitrophenyl glycosides, and various disaccharides were purchased from Sigma-Aldrich Co.
(§4) Brush border membranes were prepared from the rat small intestine according to the method of Kessler et al. and were assayed at pH 6.8 for rat intestinal maltase using maltose. For rat intestinal maltase, porcine kidney trehalase, and A. niger amyloglucosidase activities, the reaction mixture contained 25 mM maltose and the appropriate amount of enzyme, and the incubations were performed for 10–30 min at 37 °C. The reaction was stopped by heating at 100 °C for 3 min. After centrifugation (600 g; 10 min), the resulting reaction mixture was added to the Glucose CII-test Wako (Wako Pure Chemical Ind., Osaka, Japan). The absorbance at 505 nm was measured to determine the amount of the released D-glucose. Other glycosidase activities were determined using an appropriate para-nitrophenyl glycoside as substrate at the optimum pH of each enzyme. The reaction mixture contained 2 mM of the substrate and the appropriate amount of enzyme. The reaction was stopped by the addition of 400 mM Na2CO3. The released para-nitrophenol was measured spectrometrically at 400 nm. All reactions run in methanol.

Experiment [2] has as its target T1, coffee beans α-galactosidase (Coffea arabica, UniProt Q42656).
T1 construct: purchased Sigma-Aldrich Co
Put plainly: Glycosidase inhibition, coffee beans α-galactosidase. The format is biochemical.
From the text: as §1, §2, §3, §4

Experiment [3] deals with H460 (lung carcinoma). Put plainly: Cancer screening (MTT growth inhibition), H460. The format is cell-based. To be noted: 72 h; for inhibition at 25 µM: NCI-H460, 25 µM of drug, read-out: Percentage (%) cell growth inhibition; for inhibition at 25 µM / Percentage (%) cell growth inhibition: n = 3, mean ± SEM; for Percentage (%) cell growth inhibition: 25 µM of drug. The procedure:
All test agents were prepared as stock solutions (20 mM) in dimethyl sulfoxide (DMSO) and stored at −20 °C. Cell lines used in the study included: HT29 (colorectal carcinoma), U87 and SJ-G2 (glioblastoma), MCF-7 (breast carcinoma), A2780 (ovarian carcinoma), H460 (lung carcinoma), A431 (skin carcinoma), Du145 (prostate carcinoma), BE2-C (neuroblastoma), MiaPaCa-2 (pancreatic carcinoma), SMA560 (spontaneous murine astrocytoma), and ADDP (Cis Res Ovarian), together with one non-tumor-derived normal breast cell line (MCF10A). All cell lines were incubated in a humidified atmosphere with 5 % CO2 at 37 °C. The cancer cell lines were maintained in Dulbecco’s modified Eagle’s medium (DMEM; Sigma, Australia) supplemented with fetal bovine serum (10%), sodium pyruvate (10 mM), penicillin (100 IUmL^−1), streptomycin (100 µg mL^−1), and L-glutamine (2 mM).
Growth inhibition was determined by plating cells in duplicate in medium (100 µL) at a density of 2500–4000 cells per well in 96-well plates. On day 0 (24 h after plating), when the cells are in logarithmic growth, medium (100 µL) with or without the test agent was added to each well. After 72 h of drug exposure, growth inhibitory effects were evaluated using the (3-(4,5-dimethyltiazol-2-yl)-2,5-diphenyltetrazolium bromide) (MTT) assay and absorbance read at 540 nm. The percentage growth inhibition was calculated at a fixed concentration of 25 µM, based on the difference between the optical density values on day 0 and those at the end of drug exposure. Each data point is the mean ± the standard error of the mean (SEM) calculated from three replicates, which were performed on separate occasions and in separate cell line passages.

In experiment [4] the test system is snail β-mannosidase. Put plainly: Glycosidase inhibition, snail β-mannosidase. To be noted: for inhibition %: in methanol. The format is biochemical.
From the text: as §1, §2, §3, §4

For experiment [5], the system named is bovine liver β-galactosidase. The experiment in a line: Glycosidase inhibition, bovine liver β-galactosidase. The format is biochemical. To be noted: for inhibition %: in methanol.
From the text: as §1, §2, §3, §4

Experiment [6] addresses T2, E. coli β-glucuronidase (Escherichia coli, UniProt P05804).
T2 construct: purchased Sigma-Aldrich Co
Put plainly: Glycosidase inhibition, E. coli β-glucuronidase. The format is biochemical.
From the text: as §1, §2, §3, §4

In experiment [7] the test system is bovine liver β-glucosidase. The experiment in a line: Glycosidase inhibition, bovine liver β-glucosidase. To be noted: for inhibition %: in methanol. In kind it is biochemical.
From the text: as §1, §2, §3, §4

Setting [8] is: at 100 μM, in methanol, read-out: inhibition %.
Setting [9] is: at 100 μM, read-out: NI: No inhibition.
The mark [10] stands for this setting: at 1000 μM, in methanol, read-out: inhibition %.
The mark [11] stands for this setting: at 1000 μM, read-out: NI: No inhibition.

Read-outs that look alike come from different tables or passages of the source.

T1 sequence (Q42656 16-378): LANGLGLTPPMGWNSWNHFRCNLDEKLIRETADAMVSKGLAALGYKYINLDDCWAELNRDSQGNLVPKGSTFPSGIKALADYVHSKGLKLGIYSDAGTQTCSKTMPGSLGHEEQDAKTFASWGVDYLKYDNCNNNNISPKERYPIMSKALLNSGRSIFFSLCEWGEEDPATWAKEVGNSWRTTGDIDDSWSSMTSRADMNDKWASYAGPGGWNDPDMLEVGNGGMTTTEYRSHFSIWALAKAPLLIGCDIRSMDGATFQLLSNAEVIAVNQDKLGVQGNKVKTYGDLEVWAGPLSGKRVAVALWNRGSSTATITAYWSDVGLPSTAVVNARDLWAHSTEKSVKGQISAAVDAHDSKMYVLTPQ
T2 sequence (P05804 whole entry): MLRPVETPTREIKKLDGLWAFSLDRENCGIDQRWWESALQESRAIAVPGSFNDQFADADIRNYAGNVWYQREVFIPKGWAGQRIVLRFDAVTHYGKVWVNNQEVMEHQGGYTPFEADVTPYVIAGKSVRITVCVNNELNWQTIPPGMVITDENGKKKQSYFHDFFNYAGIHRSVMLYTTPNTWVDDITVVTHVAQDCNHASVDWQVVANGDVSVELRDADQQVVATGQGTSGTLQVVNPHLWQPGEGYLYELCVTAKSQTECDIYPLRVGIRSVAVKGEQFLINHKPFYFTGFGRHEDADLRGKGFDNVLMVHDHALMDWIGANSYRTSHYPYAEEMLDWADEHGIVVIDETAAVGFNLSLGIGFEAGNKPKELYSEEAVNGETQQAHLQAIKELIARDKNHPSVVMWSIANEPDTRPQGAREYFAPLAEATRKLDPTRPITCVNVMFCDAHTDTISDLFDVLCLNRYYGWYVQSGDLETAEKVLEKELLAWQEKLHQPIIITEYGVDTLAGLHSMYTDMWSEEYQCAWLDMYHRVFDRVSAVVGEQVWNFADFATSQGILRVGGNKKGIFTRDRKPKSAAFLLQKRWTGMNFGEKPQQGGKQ

As for `CC1(C)OCC(C2OC3OC(C)(C)OC3C2[B-]23OCC[NH+]2CCO3)O1` [Compound 6, 3-Deoxy-3-Boronodiethanolamine-1,2:5,6-Di-O-isopropylidene-α-D-galactofuranose], the “NI: No inhibition” value in experiment [1] (at 100 μM), in experiment [4] (at 100 μM), in experiment [5] (at 100 μM) and in experiment [7] (at 100 μM) was “NI (No inhibition (less than 50% inhibition at 100 μM))” in each case. For the same compound, the inhibition % came to 0% in experiment [1] (at 100 μM), 0% in experiment [4] (at 100 μM), 16.3% in experiment [5] (at 100 μM) and 12.2% in experiment [7] (at 100 μM). For the same compound, the inhibition at 100 µM in experiment [2] (setting [8]) was 0.5%; in experiment [2] (setting [9]) it was < 50%; in experiment [6] (setting [8]), 3.5%; in experiment [6] (setting [9]), < 50%. Further, the inhibition at 25 µM in experiment [3] (Homo sapiens) amounted to 9 ± 2%.

Borocaptate sodium [BSH]: the “NI: No inhibition” value in experiment [1] (at 1000 μM), in experiment [4] (at 1000 μM), in experiment [5] (at 1000 μM) and in experiment [7] (at 1000 μM) was “NI (No inhibition (less than 50% inhibition at 1000 μM))” in each case. Further, the inhibition % in experiment [1] (at 1000 μM) is 6.9%; in experiment [2] (at 1000 μM, in methanol) it was 12.3%; in experiment [4] (at 1000 μM), 19.2%; in experiment [5] (at 1000 μM), 0%; in experiment [6] (at 1000 μM, in methanol), 6%; in experiment [7] (at 1000 μM), 15%. In addition, in experiment [3], the “Percentage (%) cell growth inhibition” value stood at 8 ± 2%.

Turning to `OCC1OC(O)C(O)C(B(O)O)C1O` [Compound 7, 3-Boronic-3-Deoxy-D-galactose], the “NI: No inhibition” value in experiment [1] (at 1000 μM), in experiment [4] (at 1000 μM), in experiment [5] (at 1000 μM) and in experiment [7] (at 1000 μM) was “NI (No inhibition (less than 50% inhibition at 1000 μM))” in each case. Besides, the inhibition % in experiment [1] (at 1000 μM) came to 12.1%; in experiment [4] (at 1000 μM) it was 0%; in experiment [5] (at 1000 μM) it was 40.7%; in experiment [7] (at 1000 μM), 12.6%. Moreover, the inhibition at 1000 µM is 0% in experiment [2] (setting [10]), < 50% in experiment [2] (setting [11]), 3.7% in experiment [6] (setting [10]) and < 50% in experiment [6] (setting [11]). In experiment [3] (Homo sapiens), the inhibition at 25 µM came to 4 ± 1%. Besides, in experiment [3] (Homo sapiens, NCI-H460, dose response, read-out: GI50 = Concentration that inhibits cell growth by 50%), the GI50 is > 50 µM.

For `N[C@@H](Cc1ccc(B(O)O)cc1)C(=O)O` [BPA, 4-borono-L-phenylalanine], the “NI: No inhibition” value in experiment [1] (at 100 μM), in experiment [4] (at 100 μM), in experiment [5] (at 100 μM) and in experiment [7] (at 100 μM) was “NI (No inhibition (less than 50% inhibition at 100 μM))” throughout. In addition, the inhibition % was determined as 0% in experiment [1] (at 100 μM), 2.1% in experiment [4] (at 100 μM), 10.9% in experiment [5] (at 100 μM) and 0% in experiment [7] (at 100 μM). Besides, the inhibition at 100 µM in experiment [2] (setting [8]) was 4.3%; in experiment [2] (setting [9]), < 50%; in experiment [6] (setting [8]), 0.5%; in experiment [6] (setting [9]), < 50%. In addition, in experiment [3] (Homo sapiens), the inhibition at 25 µM came out at 7 ± 8%.

As to `N[C@@H](Cc1ccc(B(O)O)cc1)C(=O)O` [^10B-BPA], the “NI: No inhibition” value in experiment [1] (at 100 μM), in experiment [4] (at 100 μM), in experiment [5] (at 100 μM) and in experiment [7] (at 100 μM) was “NI (No inhibition (less than 50% inhibition at 100 μM))” throughout. The inhibition % worked out at 0% in experiment [1] (at 100 μM); 1.2% in experiment [2] (at 100 μM, in methanol); 0.3% in experiment [4] (at 100 μM); 0% in experiment [5] (at 100 μM); 2.4% in experiment [6] (at 100 μM, in methanol); 14.2% in experiment [7] (at 100 μM). In addition, the “Percentage (%) cell growth inhibition” value in experiment [3] was found to be 8 ± 5%.

As usually defined, the inhibition is the change of the read-out against control, counted positive when it falls.
